Publication PMC3694096, “Development of Novel In Vivo Chemical Probes to Address CNS Protein Kinase Involvement in Synaptic Dysfunction” (PLoS ONE, 2013)
Where two headings read alike, the source gives them in different places.

Columns and labels:
Type in all cases: biochemical
ASK1 = target: T1, ASK1 (Homo sapiens, UniProt Q99683); test: Kinome profiler screen; details: at 20,000 nM inhibitor; kinase activity remaining
T1 construct: purchased Millipore KinaseProfiler

CaMKIIβ = target: T2, CaMKIIβ (Homo sapiens, UniProt Q13554); test: Kinome profiler screen; details: at 20,000 nM inhibitor; kinase activity remaining
T2 construct: purchased Millipore KinaseProfiler

CaMKIIγ = target: T3, CaMKIIγ (Homo sapiens, UniProt Q13555); test: Kinome profiler screen; details: at 20,000 nM inhibitor; kinase activity remaining
T3 construct: purchased Millipore KinaseProfiler

CK2 = target: T4, CK2 (Homo sapiens, UniProt P68400); test: Kinome profiler screen; details: at 20,000 nM inhibitor; kinase activity remaining
T4 construct: purchased Millipore KinaseProfiler

cKit(D816H) = target: T5, cKit(D816H) (Homo sapiens, UniProt P10721, D816H); test: Kinome profiler screen; details: at 20,000 nM inhibitor; kinase activity remaining
T5 construct: purchased Millipore KinaseProfiler

DDR2 = target: T6, DDR2 (Homo sapiens, UniProt Q16832); test: Kinome profiler screen
T6 construct: purchased Millipore
T6 sequence (Q16832 22-855): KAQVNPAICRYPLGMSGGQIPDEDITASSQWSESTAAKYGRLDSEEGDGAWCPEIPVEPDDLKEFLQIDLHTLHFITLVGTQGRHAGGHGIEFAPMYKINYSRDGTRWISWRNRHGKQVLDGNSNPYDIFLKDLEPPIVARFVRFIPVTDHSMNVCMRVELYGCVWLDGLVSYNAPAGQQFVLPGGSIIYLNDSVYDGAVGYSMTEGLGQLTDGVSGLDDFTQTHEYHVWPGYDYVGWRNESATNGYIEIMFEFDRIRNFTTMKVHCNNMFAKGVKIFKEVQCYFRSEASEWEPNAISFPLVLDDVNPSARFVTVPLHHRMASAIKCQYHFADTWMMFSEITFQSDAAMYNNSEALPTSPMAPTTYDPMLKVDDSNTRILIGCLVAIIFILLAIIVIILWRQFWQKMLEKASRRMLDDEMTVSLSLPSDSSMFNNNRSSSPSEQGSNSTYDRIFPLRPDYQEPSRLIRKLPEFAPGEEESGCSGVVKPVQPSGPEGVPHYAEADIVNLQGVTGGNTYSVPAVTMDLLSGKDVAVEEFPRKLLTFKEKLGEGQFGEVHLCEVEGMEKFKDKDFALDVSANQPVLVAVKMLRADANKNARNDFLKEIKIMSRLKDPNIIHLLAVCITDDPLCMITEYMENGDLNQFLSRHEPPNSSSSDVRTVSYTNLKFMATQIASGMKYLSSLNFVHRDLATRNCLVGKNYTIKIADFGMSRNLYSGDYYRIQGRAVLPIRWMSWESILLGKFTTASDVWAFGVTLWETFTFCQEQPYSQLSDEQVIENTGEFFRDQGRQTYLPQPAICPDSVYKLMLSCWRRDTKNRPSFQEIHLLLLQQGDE

EphB2 = target: T7, EphB2 (Homo sapiens, UniProt P29323); test: Kinome profiler screen; details: for activity at 20 µM: at 20,000 nM inhibitor, kinase activity remaining
T7 construct: purchased Millipore
T7 sequence (P29323 19-1055): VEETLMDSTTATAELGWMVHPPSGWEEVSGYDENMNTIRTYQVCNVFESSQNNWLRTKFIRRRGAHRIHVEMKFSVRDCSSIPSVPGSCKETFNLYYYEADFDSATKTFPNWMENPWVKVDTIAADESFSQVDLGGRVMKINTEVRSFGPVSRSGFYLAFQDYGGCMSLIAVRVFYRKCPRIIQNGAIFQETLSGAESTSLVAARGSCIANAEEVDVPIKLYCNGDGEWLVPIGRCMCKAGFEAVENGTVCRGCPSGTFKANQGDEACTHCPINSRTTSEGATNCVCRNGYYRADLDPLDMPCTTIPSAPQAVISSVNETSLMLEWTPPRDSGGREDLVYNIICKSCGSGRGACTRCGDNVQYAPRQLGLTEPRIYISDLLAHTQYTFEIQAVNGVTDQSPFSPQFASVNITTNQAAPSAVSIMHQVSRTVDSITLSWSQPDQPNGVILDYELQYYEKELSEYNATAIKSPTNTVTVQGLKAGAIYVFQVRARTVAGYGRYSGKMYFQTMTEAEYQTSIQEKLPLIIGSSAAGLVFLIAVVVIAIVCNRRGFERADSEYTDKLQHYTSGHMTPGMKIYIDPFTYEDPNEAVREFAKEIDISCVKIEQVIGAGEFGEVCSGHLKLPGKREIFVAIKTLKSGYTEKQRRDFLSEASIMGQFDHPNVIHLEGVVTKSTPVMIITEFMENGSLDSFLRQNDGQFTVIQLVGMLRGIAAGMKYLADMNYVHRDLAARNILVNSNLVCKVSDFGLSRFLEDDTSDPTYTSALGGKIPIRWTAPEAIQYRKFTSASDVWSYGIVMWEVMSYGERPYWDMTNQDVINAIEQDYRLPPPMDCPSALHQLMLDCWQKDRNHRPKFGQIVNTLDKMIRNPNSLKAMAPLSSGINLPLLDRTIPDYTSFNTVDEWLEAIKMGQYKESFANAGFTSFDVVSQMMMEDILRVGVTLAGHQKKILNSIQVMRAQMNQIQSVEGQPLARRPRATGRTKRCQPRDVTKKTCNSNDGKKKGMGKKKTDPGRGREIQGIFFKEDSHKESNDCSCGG

EphB4 = target: T8, EphB4 (Homo sapiens, UniProt P54760); test: Kinome profiler screen; details: at 20,000 nM inhibitor; kinase activity remaining
T8 construct: purchased Millipore KinaseProfiler

Flt3 = target: T9, Flt3 (Homo sapiens, UniProt P36888); test: Kinome profiler screen; details: at 20,000 nM inhibitor; kinase activity remaining
T9 construct: purchased Millipore KinaseProfiler

GRK7 = target: T10, GRK7 (Homo sapiens, UniProt Q8WTQ7); test: Kinome profiler screen
T10 construct: purchased Millipore KinaseProfiler

MAPK1 = target: T11, MAPK1 (Homo sapiens, UniProt P27361); test: Kinome profiler screen; details: at 20,000 nM inhibitor; kinase activity remaining
T11 construct: purchased Millipore KinaseProfiler

MAPK2(m) = target: T12, MAPK2(m) (Mus musculus, UniProt P63085); test: Kinome profiler screen; details: at 20,000 nM inhibitor; kinase activity remaining
T12 construct: purchased Millipore KinaseProfiler

Met(D1246N) = target: T13, Met(D1246N) (Homo sapiens, UniProt P08581, D1228N); test: Kinome profiler screen; details: at 20,000 nM inhibitor; kinase activity remaining
T13 construct: purchased Millipore KinaseProfiler

PDGFRα = target: T14, PDGFRα (Homo sapiens, UniProt P16234); test: Kinome profiler screen; details: at 20,000 nM inhibitor; kinase activity remaining
T14 construct: purchased Millipore KinaseProfiler

PhKγ2 = target: T15, PhKγ2 (Homo sapiens, UniProt P15735); test: Kinome profiler screen; details: at 20,000 nM inhibitor; kinase activity remaining
T15 construct: purchased Millipore KinaseProfiler

PKCδ = target: T16, PKCδ (Homo sapiens, UniProt Q05655); test: Kinome profiler screen; details: at 20,000 nM inhibitor; kinase activity remaining
T16 construct: purchased Millipore KinaseProfiler

TSSK2 = target: T17, TSSK2 (Homo sapiens, UniProt Q96PF2); test: Kinome profiler screen; details: at 20,000 nM inhibitor; kinase activity remaining
T17 construct: purchased Millipore KinaseProfiler

ZAP-70 = target: T18, ZAP-70 (Homo sapiens, UniProt P43403); test: Kinome profiler screen; details: at 20,000 nM inhibitor; kinase activity remaining
T18 construct: purchased Millipore KinaseProfiler

>290 mammalian kinases = test: Hierarchal large-scale kinome screen, overall outcome; details: overall outcome in words
[1] = at 20,000 nM inhibitor, kinase activity remaining, read-out: % Activity

T16 sequence (Q05655 whole entry): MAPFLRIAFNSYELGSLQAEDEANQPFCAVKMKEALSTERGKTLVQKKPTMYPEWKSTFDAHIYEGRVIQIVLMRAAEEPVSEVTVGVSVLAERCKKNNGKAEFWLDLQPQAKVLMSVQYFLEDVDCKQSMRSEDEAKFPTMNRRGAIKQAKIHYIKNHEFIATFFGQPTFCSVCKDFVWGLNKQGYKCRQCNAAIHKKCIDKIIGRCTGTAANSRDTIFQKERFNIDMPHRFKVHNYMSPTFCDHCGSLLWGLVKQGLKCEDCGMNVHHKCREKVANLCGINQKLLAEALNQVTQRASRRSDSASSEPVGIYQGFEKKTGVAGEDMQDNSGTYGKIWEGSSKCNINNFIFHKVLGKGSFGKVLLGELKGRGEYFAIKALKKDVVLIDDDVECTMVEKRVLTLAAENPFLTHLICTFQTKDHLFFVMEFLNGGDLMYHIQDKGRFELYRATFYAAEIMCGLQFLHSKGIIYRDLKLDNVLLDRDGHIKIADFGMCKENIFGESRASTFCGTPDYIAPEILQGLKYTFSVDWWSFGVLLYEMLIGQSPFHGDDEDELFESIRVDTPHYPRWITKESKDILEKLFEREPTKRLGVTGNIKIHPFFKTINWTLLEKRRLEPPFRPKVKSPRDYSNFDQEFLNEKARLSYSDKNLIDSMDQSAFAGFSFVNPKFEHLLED
T17 sequence (Q96PF2 whole entry): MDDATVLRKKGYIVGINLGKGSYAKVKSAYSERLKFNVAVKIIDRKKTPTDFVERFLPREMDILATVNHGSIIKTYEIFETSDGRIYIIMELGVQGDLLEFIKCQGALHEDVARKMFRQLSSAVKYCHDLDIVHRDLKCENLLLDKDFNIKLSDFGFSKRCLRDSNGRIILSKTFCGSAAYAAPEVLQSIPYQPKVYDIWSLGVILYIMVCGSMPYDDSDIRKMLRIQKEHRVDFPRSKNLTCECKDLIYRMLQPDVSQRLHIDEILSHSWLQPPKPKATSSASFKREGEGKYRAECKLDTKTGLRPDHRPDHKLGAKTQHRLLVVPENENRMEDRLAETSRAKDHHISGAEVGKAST
T11 sequence (P27361 whole entry): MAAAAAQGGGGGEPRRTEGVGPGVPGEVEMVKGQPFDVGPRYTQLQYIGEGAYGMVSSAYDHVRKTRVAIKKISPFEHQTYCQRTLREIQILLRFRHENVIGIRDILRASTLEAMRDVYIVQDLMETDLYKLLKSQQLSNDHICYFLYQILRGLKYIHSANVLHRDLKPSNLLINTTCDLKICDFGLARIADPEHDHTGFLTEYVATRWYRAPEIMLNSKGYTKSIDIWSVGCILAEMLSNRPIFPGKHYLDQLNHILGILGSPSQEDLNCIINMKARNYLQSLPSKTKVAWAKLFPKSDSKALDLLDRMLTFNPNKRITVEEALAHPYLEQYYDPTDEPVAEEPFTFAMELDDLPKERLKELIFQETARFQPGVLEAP
T15 sequence (P15735 whole entry): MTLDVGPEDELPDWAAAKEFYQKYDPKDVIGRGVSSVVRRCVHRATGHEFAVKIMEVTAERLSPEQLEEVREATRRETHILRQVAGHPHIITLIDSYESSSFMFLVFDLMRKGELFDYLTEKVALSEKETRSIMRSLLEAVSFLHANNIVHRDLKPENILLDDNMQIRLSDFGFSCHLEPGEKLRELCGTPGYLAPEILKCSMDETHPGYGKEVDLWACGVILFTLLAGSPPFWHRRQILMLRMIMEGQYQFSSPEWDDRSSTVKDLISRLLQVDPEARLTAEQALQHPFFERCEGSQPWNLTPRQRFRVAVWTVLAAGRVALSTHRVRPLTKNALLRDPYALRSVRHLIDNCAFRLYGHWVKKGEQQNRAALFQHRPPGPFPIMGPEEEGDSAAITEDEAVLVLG
T3 sequence (Q13555 whole entry): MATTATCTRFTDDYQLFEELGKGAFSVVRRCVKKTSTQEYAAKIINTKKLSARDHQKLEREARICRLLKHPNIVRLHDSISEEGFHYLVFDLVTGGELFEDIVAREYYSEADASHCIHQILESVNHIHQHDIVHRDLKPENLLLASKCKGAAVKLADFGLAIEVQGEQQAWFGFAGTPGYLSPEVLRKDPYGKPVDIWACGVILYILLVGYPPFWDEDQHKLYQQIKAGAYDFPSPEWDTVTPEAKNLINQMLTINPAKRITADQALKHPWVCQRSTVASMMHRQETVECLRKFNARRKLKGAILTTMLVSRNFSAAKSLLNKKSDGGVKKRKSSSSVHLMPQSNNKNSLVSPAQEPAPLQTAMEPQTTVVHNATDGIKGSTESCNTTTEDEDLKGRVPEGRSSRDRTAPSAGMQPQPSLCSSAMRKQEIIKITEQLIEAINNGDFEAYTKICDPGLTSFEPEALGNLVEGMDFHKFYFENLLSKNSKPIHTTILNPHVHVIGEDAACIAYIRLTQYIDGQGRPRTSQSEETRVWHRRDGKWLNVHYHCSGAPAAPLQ
T10 sequence (Q8WTQ7 whole entry): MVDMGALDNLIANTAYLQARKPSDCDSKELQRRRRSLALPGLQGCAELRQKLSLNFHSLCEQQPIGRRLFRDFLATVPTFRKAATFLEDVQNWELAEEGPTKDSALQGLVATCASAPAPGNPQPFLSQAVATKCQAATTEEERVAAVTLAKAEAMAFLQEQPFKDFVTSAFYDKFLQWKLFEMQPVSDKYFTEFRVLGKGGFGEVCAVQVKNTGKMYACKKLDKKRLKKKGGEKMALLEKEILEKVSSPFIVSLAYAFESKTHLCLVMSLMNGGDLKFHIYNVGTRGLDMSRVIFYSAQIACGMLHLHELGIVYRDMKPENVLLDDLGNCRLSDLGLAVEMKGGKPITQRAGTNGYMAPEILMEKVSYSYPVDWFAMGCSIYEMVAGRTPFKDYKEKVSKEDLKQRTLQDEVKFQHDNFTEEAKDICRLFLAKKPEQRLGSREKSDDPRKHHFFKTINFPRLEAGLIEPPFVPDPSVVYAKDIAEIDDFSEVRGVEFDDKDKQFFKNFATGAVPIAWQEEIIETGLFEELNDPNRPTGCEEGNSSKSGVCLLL
T8 sequence (P54760 16-987): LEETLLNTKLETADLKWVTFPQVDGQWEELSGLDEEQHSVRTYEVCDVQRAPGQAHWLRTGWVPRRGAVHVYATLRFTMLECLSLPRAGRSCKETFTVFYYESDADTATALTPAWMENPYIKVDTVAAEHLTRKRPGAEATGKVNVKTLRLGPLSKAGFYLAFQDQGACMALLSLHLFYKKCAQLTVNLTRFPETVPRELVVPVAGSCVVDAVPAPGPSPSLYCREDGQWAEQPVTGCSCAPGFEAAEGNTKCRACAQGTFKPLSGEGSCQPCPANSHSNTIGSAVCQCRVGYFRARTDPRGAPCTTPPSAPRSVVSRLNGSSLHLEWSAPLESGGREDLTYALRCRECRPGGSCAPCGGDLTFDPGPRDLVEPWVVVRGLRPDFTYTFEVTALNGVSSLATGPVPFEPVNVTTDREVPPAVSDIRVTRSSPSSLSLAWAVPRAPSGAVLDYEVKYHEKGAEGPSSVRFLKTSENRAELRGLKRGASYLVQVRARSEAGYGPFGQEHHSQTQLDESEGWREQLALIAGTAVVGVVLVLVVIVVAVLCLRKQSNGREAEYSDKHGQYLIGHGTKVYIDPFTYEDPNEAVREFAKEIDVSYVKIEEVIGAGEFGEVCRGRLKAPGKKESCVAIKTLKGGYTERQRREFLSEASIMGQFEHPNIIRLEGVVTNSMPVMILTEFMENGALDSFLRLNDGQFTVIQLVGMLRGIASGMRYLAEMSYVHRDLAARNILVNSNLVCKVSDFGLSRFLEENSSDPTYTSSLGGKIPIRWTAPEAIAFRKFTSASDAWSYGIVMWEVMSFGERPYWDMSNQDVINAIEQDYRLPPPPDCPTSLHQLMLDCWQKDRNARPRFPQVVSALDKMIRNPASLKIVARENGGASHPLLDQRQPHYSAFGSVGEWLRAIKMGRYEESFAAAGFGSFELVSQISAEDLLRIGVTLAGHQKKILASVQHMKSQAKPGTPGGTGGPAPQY
T12 sequence (P63085 2-358): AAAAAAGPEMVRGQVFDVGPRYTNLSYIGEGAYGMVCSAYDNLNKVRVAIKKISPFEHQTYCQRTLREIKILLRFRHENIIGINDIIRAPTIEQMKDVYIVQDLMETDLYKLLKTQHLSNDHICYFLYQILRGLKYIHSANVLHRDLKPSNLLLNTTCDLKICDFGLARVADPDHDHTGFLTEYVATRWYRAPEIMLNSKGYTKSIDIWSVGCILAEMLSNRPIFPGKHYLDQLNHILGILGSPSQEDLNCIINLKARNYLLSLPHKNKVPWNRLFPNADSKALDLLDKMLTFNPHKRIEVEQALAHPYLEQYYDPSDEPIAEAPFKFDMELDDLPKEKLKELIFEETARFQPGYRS
T18 sequence (P43403 whole entry): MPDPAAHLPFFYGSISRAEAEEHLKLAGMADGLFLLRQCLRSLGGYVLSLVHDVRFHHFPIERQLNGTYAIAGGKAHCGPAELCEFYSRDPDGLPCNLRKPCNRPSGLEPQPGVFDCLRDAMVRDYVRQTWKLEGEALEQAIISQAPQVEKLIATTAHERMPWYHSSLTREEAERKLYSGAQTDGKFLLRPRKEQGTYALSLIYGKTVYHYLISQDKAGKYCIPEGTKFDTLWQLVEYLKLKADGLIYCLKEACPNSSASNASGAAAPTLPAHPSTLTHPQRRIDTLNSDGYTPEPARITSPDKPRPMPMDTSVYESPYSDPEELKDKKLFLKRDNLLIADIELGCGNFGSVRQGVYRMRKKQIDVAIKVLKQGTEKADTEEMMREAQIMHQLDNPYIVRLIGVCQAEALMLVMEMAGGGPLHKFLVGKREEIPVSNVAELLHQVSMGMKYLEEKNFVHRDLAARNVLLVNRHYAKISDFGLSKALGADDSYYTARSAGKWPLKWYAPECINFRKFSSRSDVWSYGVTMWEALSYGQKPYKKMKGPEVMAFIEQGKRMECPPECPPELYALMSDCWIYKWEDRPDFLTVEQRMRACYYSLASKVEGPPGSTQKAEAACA

| Compound | activity at 20 µM (ASK1) | activity at 20 µM (CaMKIIβ) | activity at 20 µM (CaMKIIγ) | activity at 20 µM (CK2) | activity at 20 µM (cKit(D816H)) | activity at 20 µM (EphB2) | activity at 20 µM (EphB4) | activity at 20 µM (Flt3) | activity at 20 µM (MAPK1) | activity at 20 µM (MAPK2(m)) | activity at 20 µM (Met(D1246N)) | activity at 20 µM (PDGFRα) | activity at 20 µM (PhKγ2) | activity at 20 µM (PKCδ) | activity at 20 µM (TSSK2) | activity at 20 µM (ZAP-70) | Large Scale Kinome Screen (>290 mammalian kinases) | further results |
| --- | --- | --- | --- | --- | --- | --- | --- | --- | --- | --- | --- | --- | --- | --- | --- | --- | --- | --- |
| CN(C)c1cc(-c2ccncc2)c(-c2ccc3ccccc3c2)nn1 [MW108, N, N-dimethyl-6-(naphthalen-2-yl)-5-(pyridin-4-yl)pyridazin-3-amine] | 103% | 96% | 99% | 106% | 109% | 36% | 54% | 108% | 82% | 109% | 80% | 106% | 98% | 101% | 101% | 92% | only p38αMAPK as a potential target | IC50 (DDR2): 2860 nM; activity at 20 µM (DDR2): 11%; IC50 (EphB2): 16.2 µM; activity at 20 µM (GRK7): 98%; Large Scale Kinome Screen (>290 mammalian kinases; listed as MW01-11-108SRM): negative except for p38αMAPK |
| CN(C)c1cc(-c2ccncc2)c(-c2cccc3ccccc23)nn1 [MW181, N,N-dimethyl-6-(naphthalen-1-yl)-5-(pyridin-4-yl)pyridazin-3-amine] | 109% | 108% | 100% | 104% | 102% | 92% | 100% | 93% | 90% | 106% | 104% | 103% | 93% | 92% | 107% | 99% | p38αMAPK, p38βMAPK, and the atypical p38 kinase NLK as primary targets | activity at 20 µM (DDR2; [1]): 86%; activity at 20 µM (GRK7; [1]): 102%; Large Scale Kinome Screen (>290 mammalian kinases; listed as MW01-10-181SRM): negative except for the following MAPKs |
